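Results reflect a 48-hour exposure of cells in 96-well plates to compound at five concentrations. The concentration for full growth arrest is given as TGI.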

Holding throughout (assay): DTP human tumour cell line panel, 48 h
The test system of assay [1] is T-47D breast.
In assay [2] the test system is BT-549 breast.
For assay [3], the system named is SNB-75 CNS.
Assay [4] has as its system MCF7 breast.
In assay [5] the test system is NCI/ADR-RES ovarian.
Assay [6] concerns SW-620 colon.
In assay [7] the test system is IGROV1 ovarian.
For assay [8], the system named is OVCAR-8 ovarian.
Assay [9] relates to MOLT-4 leukemia.
The test system of assay [10] is OVCAR-3 ovarian.

By TGI is commonly meant the concentration giving total growth inhibition. A low value points to more potent growth arrest. For `COc1cc(C2c3cc4c(cc3OC(N3CCCC3)C2C)OCO4)cc(OC)c1O` (stereo not given), the TGI is over 100 µM in assay [1]; 53.2 µM in assay [2]; 24.5 µM in [3]; over 100 µM in assay [4]; 37 µM in assay [5]; over 100 µM in assay [6]. Moreover, the TGI was over 100 µM in assay [7], over 100 µM in [8], over 100 µM in assay [9] and over 65.5 µM in [10].
For `CCOC(=O)C1(Cc2ccc3c(c2)CCC3)Cc2cc3c(cc2C1)CCC3`, the TGI is 50.7 µM in [1]; over 100 µM in [2]; over 100 µM in assay [3]; 40.4 µM in assay [4]; over 100 µM in [5]; over 100 µM in assay [6]. In addition, the TGI in [7] was over 100 µM; in assay [8], over 100 µM; in assay [9] it was 33 µM; in assay [10] it was over 100 µM.
Take `CN1C(=O)N/C(=C\c2ccc(S(=O)(=O)NN)cc2)C1=O`: the total growth inhibition concentration (TGI) in assay [1], in [2], in assay [3], in assay [4], in assay [5] and in assay [6] was over 100 µM in each case. The concentration for total growth inhibition (TGI) in [7], in assay [8], in assay [9] and in assay [10] was over 100 µM throughout.
Turning to `O=[N+]([O-])c1ccc(Cl)c(C=NC23CC4CC(CC(C4)C2)C3)c1`, the TGI in assay [1], in assay [2], in [3], in assay [4], in [5] and in assay [6] was over 10 µM throughout. In addition, the total growth inhibition concentration (TGI) was over 10 µM in [7], over 7.79 µM in assay [8], over 10 µM in [9] and over 10 µM in assay [10].
Consider `CC1(CCCO)CCCCCC(C)(CCCO)C1=O` (stereo not given), for which the concentration for total growth inhibition (TGI) in assay [1], in assay [2], in assay [3], in [4], in assay [5] and in assay [6] was over 100 µM in each case. Further, the TGI in assay [7], in [8], in [9] and in assay [10] was over 100 µM each time.
For the molecule `CCC(=O)NC(Nc1cccc(F)c1C)(C(F)(F)F)C(F)(F)F`, the total growth inhibition concentration (TGI) in [1], in assay [2], in assay [3], in assay [4], in [5] and in [6] was over 100 µM each time. Further, the TGI in assay [7], in assay [8], in assay [9] and in assay [10] was over 100 µM in each case.
For the molecule `NS(=O)(=O)c1nn2c(Br)c(-c3ccccc3)nc2s1`, the TGI in assay [1] worked out at 12.2 µM; in assay [2], 7.69 µM; in assay [3], 19.5 µM; in assay [4], 16 µM; in assay [5], 12.6 µM; in assay [6] it was 12.4 µM. Also, the total growth inhibition concentration (TGI) in [7] came to 23.3 µM; in assay [8] it was 7.89 µM; in [9] it was 5.67 µM; in assay [10] it was 15.9 µM.
For the molecule `COc1ccc(/C=C(/C(=O)c2ccc(Cl)cc2)N2C=CC=CC2=C(C#N)C#N)cc1OC`, the TGI is 29.4 µM in [1]; 22.5 µM in [2]; 20.3 µM in [3]; 16.9 µM in assay [4]; 44.9 µM in [5]; over 32.9 µM in assay [6]. Further, the TGI in [7] was 14.9 µM; in [8], 16.1 µM; in assay [9], 4.64 µM; in assay [10], 15.2 µM.
For `Cc1cccc(-c2nc3ccc([N+](=O)[O-])cc3c(=O)o2)c1`, the TGI in assay [1], in assay [2], in [3], in assay [4], in assay [5] and in [6] was over 100 µM in each case. The TGI in [7], in [8], in [9] and in assay [10] was over 100 µM throughout.
For `N#C/C(C(=O)Nc1ccccc1)=C(/N)N1CCOCC1`, the TGI in [1], in [2], in assay [3], in assay [4], in assay [5] and in assay [6] was over 100 µM in each case. The total growth inhibition concentration (TGI) in assay [7], in assay [8], in assay [9] and in assay [10] was over 100 µM each time.
Regarding `CN(c1ccc(Cl)cc1)S(=O)(=O)c1ccc([N+](=O)[O-])cc1`, the TGI in assay [1], in assay [2], in assay [3], in assay [4], in assay [5] and in [6] was over 100 µM in each case. For the same molecule, the TGI in assay [7], in assay [8], in [9] and in assay [10] was over 100 µM in each case.
On to `CCc1nc(N)nc(N)c1-c1ccc2nn(-c3ccccc3)[n+]([O-])c2c1`, for which the concentration for total growth inhibition (TGI) in assay [1] turned out to be 31.7 µM; in assay [2], 26.3 µM; in [3], 53.1 µM; in assay [4], 20.8 µM; in [5] it was 38.8 µM; in assay [6], 18.3 µM. Moreover, the TGI in assay [7] is 23.2 µM; in assay [8], 26.8 µM; in [9], 32.5 µM; in assay [10] it was 28.3 µM.
Regarding `O=[N+]([O-])c1ccc(/C=N/n2c(CO)nc3ccccc32)o1`, the total growth inhibition concentration (TGI) stood at 47.9 µM in assay [1]; 27.6 µM in assay [2]; 57.1 µM in assay [3]; 15.2 µM in assay [4]; 74.7 µM in [5]; 29.1 µM in [6]. The total growth inhibition concentration (TGI) in assay [7] came out at 6.09 µM; in assay [8], 25.3 µM; in assay [9], 7.12 µM; in assay [10] it was 6.91 µM.
Take `CNc1ccc(OC)cc1S(=O)(=O)c1ccccc1[N+](=O)[O-]`: the TGI in assay [1], in assay [2], in assay [3], in [4], in [5] and in assay [6] was over 100 µM throughout. For the same molecule, the concentration for total growth inhibition (TGI) in assay [7], in assay [8], in [9] and in assay [10] was over 100 µM throughout.
For `COc1cc(Nc2cnc3cc(F)c(F)cc3n2)cc(OC)c1OC`, the concentration for total growth inhibition (TGI) in assay [1], in assay [2], in [3], in assay [4], in assay [5] and in assay [6] was over 100 µM in each case. Further, the concentration for total growth inhibition (TGI) in assay [7], in [8], in assay [9] and in assay [10] was over 100 µM in each case.
For `COC(=O)C(C)(NC(=O)C(CC(=O)OC(C)(C)C)NC(=O)OC(C)(C)C)c1ccccc1` (stereo not given), the total growth inhibition concentration (TGI) in assay [1], in assay [2], in assay [3], in assay [4], in assay [5] and in [6] was over 100 µM throughout. In addition, the total growth inhibition concentration (TGI) in assay [7], in assay [8], in assay [9] and in [10] was over 100 µM throughout.
`O=Cc1ccc2c(c1)CC1(C2)Cc2ccc3c(c2C1)CCC3` (stereo not given): the TGI was over 85.3 µM in assay [1]; 18.6 µM in assay [2]; 28.9 µM in assay [3]; 22.8 µM in [4]; 27.8 µM in [5]; 15.2 µM in assay [6]. Also, the TGI amounted to 41.3 µM in assay [7], 29.8 µM in assay [8], 31.9 µM in assay [9] and 19.5 µM in [10].
Consider `C=C1C[C@@H]2O[C@H]3[C@H]4[C@@H](C[C@@H](C)[C@@H](OC(C)=O)[C@H]42)[C@@H](C)CO[C@@]3(C)[C@H](OC(C)=O)C[C@H]1O`, for which the TGI in assay [1], in assay [2], in assay [3], in assay [4], in [5] and in [6] was over 100 µM throughout. For the same molecule, the total growth inhibition concentration (TGI) in assay [7] is over 100 µM; in assay [8], over 100 µM; in [9], 85.6 µM; in assay [10], over 100 µM.
Turning to `O=[N+]([O-])c1cc2oc(COc3ccccc3)nc2cc1Cl`, the TGI is 81.4 µM in assay [1]; 60 µM in [2]; 58 µM in assay [3]; over 100 µM in assay [4]; 61.2 µM in [5]; over 100 µM in [6]. The total growth inhibition concentration (TGI) in assay [7] was over 100 µM; in assay [8], over 100 µM; in [9], over 100 µM; in assay [10], 48.2 µM.
`COc1nc(C(=O)NNC(=O)c2nc(OC)c3ccccc3c2-c2ccccc2)c(-c2ccccc2)c2ccccc12`: the total growth inhibition concentration (TGI) in [1], in assay [2], in assay [3], in assay [4], in assay [5] and in assay [6] was over 100 µM throughout. Moreover, the TGI in [7], in assay [8], in [9] and in [10] was over 100 µM throughout.
Take `O=c1[nH]c(-c2ccc3ccccc3c2)nc2ccccc12`: the TGI was over 100 µM in assay [1]; over 100 µM in [2]; 28.6 µM in assay [3]; over 100 µM in assay [4]; over 100 µM in assay [5]; over 100 µM in [6]. Moreover, the TGI in assay [7] is over 100 µM; in assay [8], 54.4 µM; in assay [9], over 100 µM; in assay [10], over 100 µM.
With `CCOC(=O)C1=CC(C)(C(=O)OCC)Nc2c(nc(OC)n(C)c2=O)N1` (stereo not given), the total growth inhibition concentration (TGI) in assay [1], in [2], in assay [3], in assay [4], in assay [5] and in assay [6] was over 10 µM in each case. In addition, the TGI in assay [7], in assay [8], in assay [9] and in assay [10] was over 10 µM throughout.
For `CN(C)Cc1cc(C(=O)/C=C/c2ccc(Cl)cc2)cc(CN(C)C)c1O`, the TGI is over 100 µM in assay [1]; 11.3 µM in assay [2]; 44.4 µM in [3]; 39.6 µM in assay [4]; 54.2 µM in assay [5]; 20.5 µM in assay [6]. The total growth inhibition concentration (TGI) in [7] was 29 µM; in assay [8], 51.3 µM; in [9], 49.9 µM; in [10], 10.8 µM.
As to `NC(N)=NCCN=C(N)N`, the total growth inhibition concentration (TGI) in [1], in assay [2], in [3], in assay [4], in [5] and in assay [6] was over 100 µM in each case. The TGI in assay [7], in assay [8], in assay [9] and in assay [10] was over 100 µM throughout.
Consider `Oc1ccc2ccccc2c1/C=C/c1ccc2c(Br)cc(Br)c(O)c2n1`, for which the TGI in assay [1] came to 35.4 µM; in assay [2], 26.8 µM; in assay [3] it was 30.8 µM; in assay [4] it was 14.5 µM; in assay [5], 12.9 µM; in [6], 25.1 µM. The total growth inhibition concentration (TGI) in assay [7] is 32.5 µM; in assay [8], 20.1 µM; in [9], 15.4 µM; in assay [10] it was 10 µM.
As to `COC(=O)Cc1cc(O)c(C/C=C(\C)CC/C=C(\C)C(O)C(=O)C=C(C)C)cc1O` (stereo not given), the TGI is 43.2 µM in assay [1]; 72.8 µM in [2]; 56.4 µM in assay [3]; 89.5 µM in assay [4]; 58.4 µM in [5]; 87.8 µM in assay [6]. Besides, the TGI was 63 µM in assay [7], 55.1 µM in assay [8], 36.9 µM in [9] and 42.5 µM in [10].
Turning to `CCOC(=O)C1=C(C)N(C)C23OC4(C(=O)OC)CC2c2ccccc2C1N3C4=O` (stereo not given), the concentration for total growth inhibition (TGI) in assay [1], in assay [2], in assay [3], in assay [4], in assay [5] and in assay [6] was over 100 µM throughout. Further, the total growth inhibition concentration (TGI) in [7], in [8], in [9] and in assay [10] was over 100 µM throughout.

These data come from PubChem BioAssay (NCI).
